Structures are written as SMILES. pIC50: −log10 of the molar value.

By pIC50 is commonly meant the negative decadic logarithm of the IC50, by convention in mol/L.

In one assay the test system is HCT-116. In words: Antiproliferative activity against human HCT116 cells after 48 hrs by MTT assay. The following applies: HCT-116, 48 h. Type of assay: functional, cell-based. On the technique in general: Tetrazolium dyes change colour on reduction, which living cells bring about.
The next assay relates to HCT-15. In words: Antiproliferative activity against human HCT15 cells after 48 hrs by MTT assay. Type of assay: functional, cell-based. The note with it: HCT-15, 48 h.
The subject of the next assay is NCI-H460. The assay can be described thus: Antiproliferative activity against human NCI-H460 cells after 48 hrs by MTT assay. Type of assay: functional, cell-based. The note with it: NCI-H460, 48 h.
A short description of assay [1]: Antiproliferative activity against human U87 cells after 48 hrs by MTT assay. The class given is functional, cell-based, U-87MG ATCC. The following applies: U-87 MG.
A further assay concerns DU-145. In words: Antiproliferative activity against human DU145 cells after 48 hrs by MTT assay. The note with it: DU-145, 48 h. The class given is functional, cell-based.
A further assay has as its system PC-3. In words: Antiproliferative activity against human PC3 cells after 48 hrs by MTT assay. The class given is functional, cell-based. The note with it: PC-3, 48 h.
A further assay has as its system A549. The assay can be described thus: Antiproliferative activity against human A549 cells after 48 hrs by MTT assay. Type of assay: functional, cell-based. The note with it: A549, 48 h.

With `COc1cc(/C=C/C(=O)c2ccccc2)ccc1OCCCCN1CCCCC1`, the pIC50 in the assay on HCT-116 was below 4.70; with HCT-15, below 4.70; in the assay with NCI-H460 it was below 4.70; in assay [1], below 4.70; in the assay on DU-145, below 4.70; with PC-3 it was 5.04. The same compound had a pIC50 with A549 below 4.70.

Regarding `COc1cc(/C=C/C(=O)c2ccccc2OC)ccc1OCCCN1CC(C)OC(C)C1` (stereo not drawn), the pIC50 in the assay with HCT-116 was 5.19; in the assay on HCT-15, 5.20; in the assay on NCI-H460, 5.09; in assay [1], 5.30; in the assay on DU-145, 5.41; with PC-3, below 4.70. In the assay with A549, this compound gave a pIC50 of 5.27.

Regarding `COc1cc(/C=C/C(=O)c2ccc(Cl)cc2Cl)ccc1OCCCN1CCc2ccccc21`, the negative-log IC50 (pIC50) in the assay with HCT-116 is 4.72; in the assay on HCT-15, below 4.70; in the assay with NCI-H460 it was below 4.70; in assay [1], 4.70; with DU-145 it was below 4.70; in the assay with PC-3, below 4.70. The compound also had a pIC50 with A549 below 4.70.

In the case of `COc1cc(/C=C/C(=O)c2ccc(Cl)cc2Cl)ccc1OCCCN1CCCc2ccccc21`, the negative logarithm of the IC50 (pIC50) in the assay on HCT-116 was below 4.70; in the assay with HCT-15, below 4.70; in the assay with NCI-H460 it was below 4.70; in assay [1], below 4.70; in the assay with DU-145, below 4.70; in the assay on PC-3, 5.09. The pIC50 in the assay on A549 is below 4.70.

For `COc1ccc(C(=O)/C=C/c2ccc(OCCCN3CCOCC3)c(OC)c2)cc1`, the pIC50 with HCT-116 is 5.17; in the assay with HCT-15, 4.96; with NCI-H460, 5.00; in assay [1], 5.15; in the assay with DU-145, 5.69; in the assay with PC-3, 5.10. Besides, the negative-log IC50 (pIC50) in the assay with A549 was 5.27.

On to `COc1cc(/C=C/C(=O)c2ccc(Cl)cc2Cl)ccc1OCCCN1CC(C)OC(C)C1` (stereo not drawn), for which the negative-log IC50 (pIC50) is below 4.70 with HCT-116; below 4.70 in the assay on HCT-15; below 4.70 in the assay with NCI-H460; below 4.70 in assay [1]; below 4.70 in the assay on DU-145; 5.05 with PC-3. Also, in the assay with A549, the negative logarithm of the IC50 (pIC50) is below 4.70.

For the compound `COc1ccc(C(=O)/C=C/c2ccc(OCCCN3CCCc4ccccc43)c(OC)c2)cc1`, the negative-log IC50 (pIC50) in the assay on HCT-116 is below 4.70; in the assay with HCT-15 it was below 4.70; with NCI-H460 it was below 4.70; in assay [1], 4.74; in the assay with DU-145 it was below 4.70; with PC-3, below 4.70. Also, the pIC50 in the assay on A549 is below 4.70.

As for `COc1ccc(/C=C\c2cc(OC)c(OC)c(OC)c2)cc1O` [COMBRETASTATIN A4], the pIC50 in the assay with HCT-116 is 5.04; in the assay on HCT-15, 5.05; in the assay on NCI-H460, 7.32; in assay [1] it was 5.01; in the assay with DU-145, 6.55; in the assay on PC-3 it was 5.45. The same compound showed a pIC50 in the assay on A549 of 5.03.

As to `COc1ccc(C(=O)/C=C/c2ccc(OCCCN3CCc4ccccc43)c(OC)c2)cc1`, the pIC50 is below 4.70 in the assay with HCT-116; 4.70 in the assay on HCT-15; below 4.70 with NCI-H460; 4.82 in assay [1]; 4.79 with DU-145; below 4.70 in the assay with PC-3. The same compound had a pIC50 in the assay on A549 of 4.73.

`COc1cc(/C=C/C(=O)c2ccc(Br)cc2)ccc1OCCCN1CCCc2ccccc21`: the pIC50 (in the assay with HCT-116; with HCT-15; in the assay with NCI-H460; in assay [1]; in the assay with DU-145; with PC-3) was below 4.70 throughout. Besides, the pIC50 in the assay with A549 was 4.72.

With `COc1cc(/C=C/C(=O)c2ccc(C)cc2)ccc1OCCCN1CC(C)OC(C)C1` (stereo not drawn), the pIC50 is 5.26 with HCT-116; 5.06 with HCT-15; below 4.70 in the assay on NCI-H460; 5.38 in assay [1]; below 4.70 in the assay with DU-145; below 4.70 in the assay with PC-3. Moreover, the pIC50 in the assay on A549 was 5.04.

Regarding `COc1cc(/C=C/C(=O)c2ccc(Cl)cc2Cl)ccc1OCCCCN1CCCCC1`, the negative-log IC50 (pIC50) in the assay with HCT-116 was below 4.70; in the assay on HCT-15 it was below 4.70; in the assay on NCI-H460 it was 4.79; in assay [1], 5.22; in the assay with DU-145, 5.24; in the assay with PC-3 it was 5.14. This compound had a pIC50 with A549 of 5.02.

For `COc1cc(/C=C/C(=O)c2ccccc2O)ccc1OCCCN1CCCCC1`, the pIC50 is 5.70 with HCT-116; 5.49 in the assay on HCT-15; 5.79 in the assay with NCI-H460; 5.54 in assay [1]; 5.56 in the assay with DU-145; 5.71 in the assay with PC-3. The compound further showed a pIC50 in the assay with A549 of 5.50.

Turning to `COc1cc(/C=C/C(=O)c2ccc(Br)cc2)ccc1OCCN1CCOCC1`, the pIC50 in the assay with HCT-116 was below 4.70; with HCT-15 it was below 4.70; in the assay with NCI-H460, below 4.70; in assay [1] it was below 4.70; in the assay on DU-145, 5.01; in the assay on PC-3, 5.05. The pIC50 with A549 is 4.92.

As to `COc1cc(/C=C/C(=O)c2ccc(Cl)cc2Cl)ccc1OCCN1CCOCC1`, the pIC50 in the assay with HCT-116 is 4.70; in the assay with HCT-15, 4.74; with NCI-H460, below 4.70; in assay [1], below 4.70; in the assay with DU-145, 5.17; in the assay on PC-3, 5.29. In the assay on A549, this compound had a pIC50 below 4.70.

As for `COc1cc(/C=C/C(=O)c2ccc(C(F)(F)F)cc2)ccc1OCCN1CCOCC1`, the negative logarithm of the IC50 (pIC50) in the assay with HCT-116 is below 4.70; with HCT-15, below 4.70; in the assay on NCI-H460 it was below 4.70; in assay [1], below 4.70; in the assay with DU-145, below 4.70; in the assay on PC-3 it was 5.21. In the assay with A549, this compound showed a pIC50 of 4.72.

Consider `COc1ccc(C(=O)/C=C/c2ccc(OCCCn3nc(C)cc3C)c(OC)c2)cc1`, for which the pIC50 in the assay with HCT-116 was 5.40; in the assay on HCT-15 it was 5.39; in the assay with NCI-H460 it was 5.05; in assay [1], 5.16; in the assay on DU-145, 5.24; in the assay with PC-3, 5.32. For the same compound, the negative logarithm of the IC50 (pIC50) in the assay with A549 is 5.43.

For `COc1cc(/C=C/C(=O)c2ccc(Cl)cc2)ccc1OCCCCN1CCCCC1`, the pIC50 with HCT-116 is below 4.70; with HCT-15, 5.09; in the assay on NCI-H460 it was 4.99; in assay [1], 5.10; with DU-145, 5.11; in the assay with PC-3 it was 5.16. In the assay on A549, this compound gave a pIC50 of 5.05.

Regarding `COc1cc(/C=C/C(=O)c2ccc(Cl)cc2)ccc1OCCCN1CCCc2ccccc21`, the pIC50 in the assay with HCT-116 is below 4.70; with HCT-15, below 4.70; in the assay on NCI-H460, below 4.70; in assay [1], 4.79; in the assay on DU-145, 4.74; in the assay with PC-3, below 4.70. The same compound had a pIC50 in the assay with A549 below 4.70.

On to `COc1ccc(C(=O)/C=C/c2ccc(OCCCN3CC(C)OC(C)C3)c(OC)c2)cc1` (stereo not drawn), for which the pIC50 with HCT-116 is 5.10; with HCT-15, 5.06; with NCI-H460, 5.38; in assay [1], 5.25; in the assay on DU-145, 5.49; in the assay with PC-3, below 4.70. Besides, in the assay with A549, the pIC50 is 5.13.

With `COc1ccc(C(=O)/C=C/c2ccc(OCCN3CCOCC3)c(OC)c2)cc1`, the pIC50 in the assay with HCT-116 was below 4.70; in the assay with HCT-15, 5.12; in the assay with NCI-H460, 5.00; in assay [1], 5.15; in the assay with DU-145, 5.06; in the assay with PC-3, 5.04. Also, the pIC50 with A549 was 5.09.

For `COc1cc(/C=C/C(=O)c2ccccc2)ccc1OCCCN1CCCc2ccccc21`, the negative-log IC50 (pIC50) in the assay with HCT-116 is below 4.70; with HCT-15, below 4.70; with NCI-H460 it was below 4.70; in assay [1], 4.70; in the assay on DU-145, below 4.70; in the assay with PC-3 it was below 4.70. The same compound had a pIC50 with A549 below 4.70.

Take `COc1cc(/C=C/C(=O)c2ccc(Br)cc2)ccc1OCCCCN1CCCCC1`: the negative logarithm of the IC50 (pIC50) in the assay on HCT-116 is below 4.70; with HCT-15 it was 5.05; in the assay on NCI-H460, below 4.70; in assay [1], 5.40; in the assay with DU-145, below 4.70; with PC-3, 5.12. The same compound showed a pIC50 in the assay on A549 of 5.04.

Consider `COc1cc(/C=C/C(=O)c2ccc(Br)cc2)ccc1OCCCN1CCCCC1`, for which the pIC50 was below 4.70 in the assay with HCT-116; below 4.70 in the assay on HCT-15; 5.09 with NCI-H460; below 4.70 in assay [1]; 4.77 in the assay with DU-145; 5.05 with PC-3. In the assay with A549, this compound had a pIC50 of 4.78.

These data come from ChEMBL document CHEMBL4043140, “Synthesis of different heterocycles-linked chalcone conjugates as cytotoxic agents and tubulin polymerization inhibitors” (Bioorg Med Chem, 2017).
